Measured values published in PubChem BioAssay (NCI).
Values joined by “and” are separate entries in the source; they are usually repeats but may differ in a detail not shown here. Equal entries are not always repeated.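 Briefly, cells in 96-well plates were exposed to five compound concentrations for 48 h, and endpoints were estimated by linear interpolation. Abbreviation: GI50, concentration required for 50% inhibition of growth. TGI marks complete inhibition of growth.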 Where a SMILES comes first, the peptide text is derived from it. [ ]: non-standard residue; d: D form. The star is where a group is joined. ξ: configuration not given here. X16 = COC1=CC(=O)N(C(=O)C(O*)C(C)C)C1Cc1ccccc1; ξNMe2Val = CC(C)C(C(=O)*)N(C)C; NMeV = CN[CH](C(=O)O)C(C)C

Columns and labels:
Test in all cases: NCI tumour cell line growth inhibition, 48 h
KM12 colon = system: KM12 colon
SN12C renal = system: SN12C renal
SF-539 CNS = system: SF-539 CNS
EKVX NSCLC = system: EKVX NSCLC
OVCAR-8 ovarian = system: OVCAR-8 ovarian
K-562 leukemia = system: K-562 leukemia
LOX IMVI melanoma = system: LOX IMVI melanoma
RXF 393 renal = system: RXF 393 renal
HT29 colon = system: HT29 colon
HS 578T breast = system: HS 578T breast

Compound | TGI (KM12 colon) [µM] | TGI (SN12C renal) [µM] | TGI (SF-539 CNS) | TGI (EKVX NSCLC) [µM] | TGI (OVCAR-8 ovarian) [µM] | TGI (K-562 leukemia) [µM] | TGI (LOX IMVI melanoma) [µM] | TGI (RXF 393 renal) [µM] | TGI (HT29 colon) | TGI (HS 578T breast) [µM] | GI50 (KM12 colon) [µM] | GI50 (SN12C renal) [µM] | GI50 (SF-539 CNS) [µM] | GI50 (OVCAR-8 ovarian) [µM] | GI50 (LOX IMVI melanoma) [µM] | GI50 (RXF 393 renal) [µM] | GI50 (EKVX NSCLC) [µM] | GI50 (K-562 leukemia) [µM] | GI50 (HT29 colon) [µM]
OCC(O)COc1ccc(Br)cc1 (centres undefined) | > 100 | > 100 | > 100 µM | > 100 | > 100 | > 100 | > 100 | > 100 | > 100 µM | – | – | – | – | – | – | – | – | – | –
N/C(CC/C(N)=N\O)=N\O | > 100 | > 100 | – | > 100 | – | > 100 | > 100 | > 100 | > 100 µM | > 100 | – | – | – | – | – | – | – | – | –
COC1=CC(=O)N(C(=O)C(OC(=O)C2CCCN2C(=O)C2CCCN2C(=O)C(C(C)C)N(C)C(=O)C(NC(=O)C(C(C)C)N(C)C)C(C)C)C(C)C)C1Cc1ccccc1 (centres undefined) (ξNMe2Val-V[NMeV]PP-X16; configuration not given here) | > 4 | – | 0.00516 µM and 0.0481 µM | 3.95 | – | – | > 4 | – | 0.0066 µM | 0.000903 | < 0.0004 | < 0.0004 | < 0.0004 | < 0.0004 | < 0.0004 | < 0.0004 | – | – | –
COc1ccc(-n2c(CCCC(=O)O)nc3c2C(=O)c2ccccc2C3=O)cc1 | > 100 | > 100 | > 100 µM | > 100 | > 100 | > 100 | > 100 | – | – | > 100 | – | – | – | – | – | – | – | – | –
C/C(=N\Nc1nc2cc(C)ccc2s1)c1ccccn1 | 12.6 | 8.85 | 41.2 µM | > 21 | 12.1 | – | 3.68 | > 22.9 | 6.69 µM | 39 | – | – | – | – | – | – | – | – | –
Oc1c(Cl)c2nccnc2c2ccccc12 | > 100 | > 100 | > 100 µM | > 100 | > 100 | > 100 | – | > 100 | > 100 µM | – | – | – | – | – | – | – | – | – | –
CC12CC3c4ccccc4CN1C3(c1ccccc1)OC2=O (centres undefined) | > 100 | > 100 | > 100 µM | > 100 | > 100 | – | > 100 | > 100 | > 100 µM | > 100 | – | – | – | – | – | – | – | – | –
CC1(C)CCc2c(cc3c(c2O)CCC(C)(C)O3)O1 | > 100 | > 100 | > 100 µM | > 100 | > 100 | > 100 | – | – | > 100 µM | > 100 | – | – | – | – | – | – | – | – | –
C=C1CC2CC[C@@]34C[C@@H]5O[C@@H]6C(O[C@H]7CC[C@H](CC(=O)OC8[C@@H](C)C9OC%10C[C@]%11(C[C@@H]%12O[C@@]%13(C[C@@H](C)[C@@H]%12O%11)C[C@H](C)[C@@H]%11OC%12CC(C(O)CO)OC%12C[C@@H]%11O%13)OC%10CC9O[C@H]8C[C@H]8O[C@@H](CC[C@@H]1O2)C[C@@H](C)C8=C)O[C@@H]7[C@@H]6O3)C5O4 (some centres undefined) | – | > 1.48 | 0.00562 µM and 0.00215 µM | > 1.48 | 0.0305 | > 1.48 | 0.394 | 0.00451 | 0.00784 µM and 0.00321 µM | – | < 0.000148 | < 0.000148 | < 0.000148 | < 0.000148 | < 0.000148 | – | < 0.000148 | < 0.000148 | < 0.000148
O=c1cnn(C2OC(CO)C(O)C(F)C2O)c(=O)[nH]1 (centres undefined) | > 100 | > 100 | > 100 µM | > 100 | > 100 | > 100 | > 100 | – | > 100 µM | > 100 | – | – | – | – | – | – | – | – | –
COC(=O)Cc1c([C@@H]2Nc3ccccc3[C@H]2CC(=O)OC)[nH]c2ccccc12 | – | > 100 | 67.5 µM | > 100 | > 100 | 77.7 | > 100 | > 100 | > 100 µM | > 100 | – | – | – | – | – | – | – | – | –
COc1c2cc(C(C)(C)C)cc1CSCc1cc(C(C)(C)C)cc(c1OC)CCCCC2 | > 50 | > 50 | > 50 µM | – | > 50 | > 50 | – | – | > 50 µM | > 50 | – | – | – | – | – | – | – | – | –
N#CI1OC(=O)c2ccccc21 | > 100 | > 100 | > 100 µM | > 100 | > 100 | > 100 | > 100 | > 100 | > 100 µM | – | – | – | – | – | – | – | – | – | –
O=S(=O)(O)c1cc(Cl)c(O)c2ncc(Cl)cc12 | > 100 | > 100 | > 100 µM | > 100 | > 100 | > 100 | > 100 | > 100 | > 100 µM | – | – | – | – | – | – | – | – | – | –
c1ccc2[nH]c(-c3nc4ccccc4o3)nc2c1 | > 100 | > 100 | > 100 µM | > 100 | > 100 | – | > 100 | – | > 100 µM | – | – | – | – | – | – | – | – | – | –
N#Cc1c(-c2ccco2)c2c(n(C3OC(CO)C(O)C(O)C3O)c1=S)CCCC2 (centres undefined) | > 100 | > 100 | > 100 µM | > 100 | > 100 | – | > 100 | > 100 | > 100 µM | > 100 | – | – | – | – | – | – | – | – | –
C=C(NC(=O)C(=C)NC(=O)c1csc(C2=NC3c4csc(n4)C4NC(=O)c5csc(n5)C(C(C)(O)C(C)O)NC(=O)C5CSC(=N5)/C(=C/C)NC(=O)C(C(C)O)NC(=O)c5csc(n5)C3(CC2)NC(=O)C(C)NC(=O)C(=C)NC(=O)C(=C)NC(=O)C(C(C)C)NC2C=Cc3c(C(C)O)cc(nc3C2O)C(=O)OC4C)n1)C(N)=O (centres undefined) | > 100 | > 38 | – | > 100 | 8.75 | > 48.3 | > 61.3 | – | 16 µM | > 100 | – | – | – | – | – | – | – | – | –
Cc1c2c(n3c(nc4ccccc43)c1C#N)N(c1ccc(Cl)cc1)CC2 | – | > 100 | > 100 µM | > 100 | > 100 | > 100 | > 100 | > 100 | > 100 µM | > 100 | – | – | – | – | – | – | – | – | –
O=S(=O)(O)c1ccc(NN(c2c(O)ccc3ccccc23)S(=O)(=O)O)cc1 | > 100 | > 100 | > 100 µM | > 100 | > 100 | > 100 | > 100 | – | > 100 µM | > 100 | – | – | – | – | – | – | – | – | –
NCCC1(N)CCNCC1 | > 100 | > 100 | > 100 µM | > 100 | > 100 | > 100 | – | > 100 | > 100 µM | > 100 | – | – | – | – | – | – | – | – | –
COc1ccc(C2SCC(=O)N2N=C2NC(=O)CC(=O)N2)cc1 (centres undefined) | > 100 | > 100 | > 100 µM | – | > 100 | > 100 | – | > 100 | > 100 µM | > 100 | – | – | – | – | – | – | – | – | –
